# Experimental data: US20230398130A1, “METHODS AND COMPOSITIONS FOR DIFFERENTIATING STEM CELLS” (Massachusetts Institute of Technology, priority 2020, published 2023)
# Assays:
# [1] = test system: ISC-enriched organoids; experiment: Primary screen, 384-well 2.5-D organoid differentiation (ENR+CD, 6 days): basal lysozyme secretion (LYZ.NS); assay type: cell-based, murine; details: for Dose.FC.LYZ.NS / Z.LYZ.NS / SSMD.LYZ.NS: primary screen; for Dose.FC.LYZ.NS: ENR+CD 6 days, FC vs plate median; for Z.LYZ.NS: standard z score of FC; for SSMD.LYZ.NS: strictly standardized mean difference
# Source text: (§1) High-throughput screening.
# [2] = test system: ISC-enriched organoids; experiment: Primary screen, 384-well 2.5-D organoid differentiation (ENR+CD, 6 days, Target Selective Inhibitor Library, vs whole-plate median): ATP (CellTiter-Glo 3D, CTG); details: for Dose.FC.CTG / Z.CTG / SSMD.CTG: primary screen; for Dose.FC.CTG: ENR+CD 6 days, FC vs plate median; for SSMD.CTG: strictly standardized mean difference
# [3] = test system: ISC-enriched organoids; experiment: Primary screen, 384-well 2.5-D organoid differentiation (ENR+CD, 6 days): carbachol-induced lysozyme secretion (LYZ.S); assay type: cell-based, murine; details: for Dose.FC.LYZ.S / Z.LYZ.S / SSMD.LYZ.S: primary screen; for Dose.FC.LYZ.S: ENR+CD 6 days, FC vs plate median; for Z.LYZ.S: standard z score; for SSMD.LYZ.S: strictly standardized mean difference
# Source text: as §1
# [4] = dose 0.08 uM (1st of 4 lines per treatment; dose not printed in this part)
# [5] = dose 0.40 uM (2nd of 4 lines per treatment; dose not printed in this part)
# [6] = dose 2.00 uM (3rd of 4 lines per treatment; dose not printed in this part)
# [7] = dose 10.00 uM (4th of 4 lines per treatment; dose not printed in this part)
# [8] = dose 0.08 uM, standard z score of FC
# [9] = dose 0.40 uM, standard z score of FC
# [10] = dose 2.00 uM, standard z score of FC
# [11] = dose 10.00 uM, standard z score of FC
# [12] = 1st of the 4 dose lines of the treatment (dose not given)
# [13] = 2nd of the 4 dose lines of the treatment (dose not given)
# [14] = 3rd of the 4 dose lines of the treatment (dose not given)
# [15] = 4th of the 4 dose lines of the treatment (dose not given)
smiles,measurement,setting,value
O=C(O)c1ccc(N2C(=O)/C(=C\c3ccc(-c4ccc([N+](=O)[O-])cc4)o3)C=C2c2ccccc2)cc1 [4E1RCat],SSMD.LYZ.NS_Rep (strictly standardized mean difference),[1]; [4],0.883
same,SSMD.LYZ.NS_Rep (strictly standardized mean difference),[1]; [5],−0.121
same,SSMD.LYZ.NS_Rep (strictly standardized mean difference),[1]; [6],0.437
same,SSMD.LYZ.NS_Rep (strictly standardized mean difference),[1]; [7],0.053
same,Dose.FC.LYZ.NS,[1]; dose 0.08 uM,0.100 log 2 fold change
same,Z.LYZ.NS,[1]; dose 0.08 uM,0.874
same,Dose.FC.LYZ.NS,[1]; dose 0.40 uM,−0.018 log 2 fold change
same,Z.LYZ.NS,[1]; dose 0.40 uM,−0.154
same,Dose.FC.LYZ.NS,[1]; dose 2.00 uM,0.151 log 2 fold change
same,Z.LYZ.NS,[1]; dose 2.00 uM,1.316
same,Dose.FC.LYZ.NS,[1]; dose 10.00 uM,0.007 log 2 fold change
same,Z.LYZ.NS,[1]; dose 10.00 uM,0.062
same,SSMD.CTG_Rep (strictly standardized mean difference),[2]; [4],0.790
same,SSMD.CTG_Rep (strictly standardized mean difference),[2]; [5],0.559
same,SSMD.CTG_Rep (strictly standardized mean difference),[2]; [6],0.022
same,SSMD.CTG_Rep (strictly standardized mean difference),[2]; [7],−0.026
same,Dose.FC.CTG,[2]; dose 0.08 uM,0.246 log 2 fold change
same,Z.CTG,[2]; [8],0.587
same,Dose.FC.CTG,[2]; dose 0.40 uM,0.362 log 2 fold change
same,Z.CTG,[2]; [9],0.864
same,Dose.FC.CTG,[2]; dose 2.00 uM,0.006 log 2 fold change
same,Z.CTG,[2]; [10],0.015
same,Dose.FC.CTG,[2]; dose 10.00 uM,−0.011 log 2 fold change
same,Z.CTG,[2]; [11],−0.026
same,SSMD.LYZ.S_Rep (strictly standardized mean difference),[3]; [4],0.712
same,Z.LYZ.S (standard z score),[3]; [4],0.690
same,SSMD.LYZ.S_Rep (strictly standardized mean difference),[3]; [5],0.185
same,Z.LYZ.S (standard z score),[3]; [5],0.247
same,SSMD.LYZ.S_Rep (strictly standardized mean difference),[3]; [6],0.311
same,Z.LYZ.S (standard z score),[3]; [6],0.316
same,SSMD.LYZ.S_Rep (strictly standardized mean difference),[3]; [7],0.321
same,Z.LYZ.S (standard z score),[3]; [7],0.530
same,Dose.FC.LYZ.S,[3]; dose 0.08 uM,0.107 log 2 fold change
same,Dose.FC.LYZ.S,[3]; dose 0.40 uM,0.038 log 2 fold change
same,Dose.FC.LYZ.S,[3]; dose 2.00 uM,0.049 log 2 fold change
same,Dose.FC.LYZ.S,[3]; dose 10.00 uM,0.082 log 2 fold change
CC(C)N(CC[C@H](c1ccccc1)c1cc(CO)ccc1O)C(C)C [4CE°8C],SSMD.LYZ.NS_Rep (strictly standardized mean difference),[1]; [4],0.497
same,SSMD.LYZ.NS_Rep (strictly standardized mean difference),[1]; [5],0.226
same,SSMD.LYZ.NS_Rep (strictly standardized mean difference),[1]; [6],0.128
same,SSMD.LYZ.NS_Rep (strictly standardized mean difference),[1]; [7],−0.861
same,Dose.FC.LYZ.NS,[1]; dose 0.08 uM,0.069 log 2 fold change
same,Z.LYZ.NS,[1]; dose 0.08 uM,0.601
same,Dose.FC.LYZ.NS,[1]; dose 0.40 uM,0.047 log 2 fold change
same,Z.LYZ.NS,[1]; dose 0.40 uM,0.413
same,Dose.FC.LYZ.NS,[1]; dose 2.00 uM,0.016 log 2 fold change
same,Z.LYZ.NS,[1]; dose 2.00 uM,0.138
same,Dose.FC.LYZ.NS,[1]; dose 10.00 uM,−0.095 log 2 fold change
same,Z.LYZ.NS,[1]; dose 10.00 uM,−0.827
same,SSMD.CTG_Rep (strictly standardized mean difference),[2]; [4],−0.402
same,SSMD.CTG_Rep (strictly standardized mean difference),[2]; [5],0.023
same,SSMD.CTG_Rep (strictly standardized mean difference),[2]; [6],−0.340
same,SSMD.CTG_Rep (strictly standardized mean difference),[2]; [7],−0.109
same,Dose.FC.CTG,[2]; dose 0.08 uM,−0.111 log 2 fold change
same,Z.CTG,[2]; [8],−0.265
same,Dose.FC.CTG,[2]; dose 0.40 uM,0.007 log 2 fold change
same,Z.CTG,[2]; [9],0.018
same,Dose.FC.CTG,[2]; dose 2.00 uM,−0.162 log 2 fold change
same,Z.CTG,[2]; [10],−0.387
same,Dose.FC.CTG,[2]; dose 10.00 uM,−0.039 log 2 fold change
same,Z.CTG,[2]; [11],−0.094
same,SSMD.LYZ.S_Rep (strictly standardized mean difference),[3]; [4],0.194
same,Z.LYZ.S (standard z score),[3]; [4],0.205
same,SSMD.LYZ.S_Rep (strictly standardized mean difference),[3]; [5],0.053
same,Z.LYZ.S (standard z score),[3]; [5],0.073
same,SSMD.LYZ.S_Rep (strictly standardized mean difference),[3]; [6],−0.217
same,Z.LYZ.S (standard z score),[3]; [6],−0.358
same,SSMD.LYZ.S_Rep (strictly standardized mean difference),[3]; [7],−0.707
same,Z.LYZ.S (standard z score),[3]; [7],−0.836
same,Dose.FC.LYZ.S,[3]; dose 0.08 uM,0.032 log 2 fold change
same,Dose.FC.LYZ.S,[3]; dose 0.40 uM,0.011 log 2 fold change
same,Dose.FC.LYZ.S,[3]; dose 2.00 uM,−0.055 log 2 fold change
same,Dose.FC.LYZ.S,[3]; dose 10.00 uM,−0.129 log 2 fold change
CCN(CC)CC(=O)Nc1c(C)cccc1C [Lidocaine],SSMD.LYZ.NS,[1]; [12],0.904
same,SSMD.LYZ.NS,[1]; [13],0.132
same,SSMD.LYZ.NS,[1]; [14],0.008
same,SSMD.LYZ.NS,[1]; [15],0.183
same,Z.CTG,"[2]; Dose 0.08 uM, standard z score",−0.188
same,Z.CTG,"[2]; Dose 0.40 uM, standard z score",−0.365
same,Z.CTG,"[2]; Dose 2.00 uM, standard z score",0.081
same,Z.CTG,"[2]; Dose 10.00 uM, standard z score",−0.611
same,SSMD.CTG,[2]; [12],−0.237
same,SSMD.CTG,[2]; [13],−0.371
same,SSMD.CTG,[2]; [14],0.116
same,SSMD.CTG,[2]; [15],−0.889
same,Z.LYZ.S,[3]; [12],0.537
same,Z.LYZ.S,[3]; [13],0.167
same,Z.LYZ.S,[3]; [14],−0.244
same,Z.LYZ.S,[3]; [15],−0.061
same,SSMD.LYZ.S,[3]; [12],0.448
same,SSMD.LYZ.S,[3]; [13],0.197
same,SSMD.LYZ.S,[3]; [14],−0.268
same,SSMD.LYZ.S,[3]; [15],−0.070
